Tests used:
splenocytes = test: ConA-induced splenocyte proliferation; assay type: cell-based; conditions: for reduction in conA-induced splenocyte proliferation: 100 and 150 μg/ml
MMP-1 = MMP-1 expression in human dermal fibroblasts, Western blot; assay type: cell-based
Protocol: Cells were then harvested after 48 hours and western blot analysis was performed.
Cells were harvested by Trypsin/EDTA and lysed with cell lysis buffer containing 50 mM Tris-HCl (pH7.40), 150 mM NaCl, 10 mM EDTA, 5 mM EGTA, 1% TritonX-100™, 0.5% Igepal CA-630, 0.025% NaN3 and protease inhibitor cocktail (Sigma™). Cell debris was removed by centrifugation at 20,000×g for 10 minutes. The protein concentration in supernatant was determined using the MicroBCA™ method (Pierce™, Rockford, Ill.). Proteins in supernatant were mixed with protein sample loading buffer (final concentration: 60 mM Tris-HCl (pH 6.80), 2% SDS, 10% glycerol, 1.5% β-mercaptoethanol, 0.002% bromophenol blue) and size fractioned by 10% of SDS-polyacrylamide gel. After proteins were transferred onto nitrocellulose membrane by iBlot™ (Invitrogen Life Technologies™), non-specific binding were blocked with phosphate buffer saline twenty 20 (PBS-T) containing 5% skim milk for 1 hour. The membrane was then incubated with primary antibody overnight. After incubation with a secondary antibody for 1 hour, protein bands were visualized by an enhanced chemiluminescence (ECL™) detection system (Santa Cruz Biotechnology™, Santa Cruz, Calif.). The primary antibodies used in this study were: mouse monoclonal anti-human MMP-1 (R&D Systems™, Minneapolis, Minn.), mouse monoclonal anti-human MMP-3 (R&D System™), rabbit monoclonal anti-human MMP-2 (Epitomics™, Burlingame, Calif.), rabbit polyclonal anti-phospho-MEK1/2 (Ser217/221™) (Cell Signaling Technology™, Danvers, Mass.), rabbit polyclonal anti-phospho-p44/42 MAPK (Thr202/Tyr204) (Cell Signaling Technology™), monoclonal anti-β-actin (Sigma™), and mouse anti-type-1 procollagen (Developmental Studies Hybridoma Bank™, Iowa City, Iowa). The secondary antibodies were either goat anti-mouse IgG (H+L) HPR conjugate or goat anti-rabbit IgG (H+L) HPR conjugate (Bio-rad Laboratory™ (Mississauga, ON, Canada). Secondary antibodies were used at a concentration of 1:3000.

type 1 procollagen = test: Type 1 procollagen expression in dermal fibroblasts, Western blot; assay type: cell-based, human; conditions: kynurenine analogues/metabolites, FIG. 10 bottom
Protocol: (§1) Cell debris was removed by centrifugation at 20,000×g for 10 minutes. The protein concentration in supernatant was determined using the MicroBCA™ method (Pierce™, Rockford, Ill.). Proteins in supernatant were mixed with protein sample loading buffer (final concentration: 60 mM Tris-HCl (pH 6.80), 2% SDS, 10% glycerol, 1.5% β-mercaptoethanol, 0.002% bromophenol blue) and size fractioned by 10% of SDS-polyacrylamide gel. After proteins were transferred onto nitrocellulose membrane by iBlot™ (Invitrogen Life Technologies™), non-specific binding were blocked with phosphate buffer saline twenty 20 (PBS-T) containing 5% skim milk for 1 hour. The membrane was then incubated with primary antibody overnight. After incubation with a secondary antibody for 1 hour, protein bands were visualized by an enhanced chemiluminescence (ECL™) detection system (Santa Cruz Biotechnology™, Santa Cruz, Calif.). […] The secondary antibodies were either goat anti-mouse IgG (H+L) HPR conjugate or goat anti-rabbit IgG (H+L) HPR conjugate (Bio-rad Laboratory™ (Mississauga, ON, Canada). Secondary antibodies were used at a concentration of 1:3000.

MMP-3 = MMP-3 expression in human dermal fibroblasts, Western blot; assay type: cell-based
Protocol: Cells were then harvested by trypsinization and western blot analysis was performed.
as §1

[1] = system: MEK-ERK1/2 signaling pathway; test: Kynurenine-stimulated MMP-1 expression in dermal fibroblasts with MEK/ERK1/2 phosphorylation inhibitors; assay type: cell-based, human; conditions: 100 μg/ml kynurenine
Protocol: Cells were harvested by Trypsin/EDTA and lysed with cell lysis buffer containing 50 mM Tris-HCl (pH7.40), 150 mM NaCl, 10 mM EDTA, 5 mM EGTA, 1% TritonX-100™, 0.5% Igepal CA-630, 0.025% NaN3 and protease inhibitor cocktail (Sigma™). Cell debris was removed by centrifugation at 20,000×g for 10 minutes. The protein concentration in supernatant was determined using the MicroBCA™ method (Pierce™, Rockford, Ill.). Proteins in supernatant were mixed with protein sample loading buffer (final concentration: 60 mM Tris-HCl (pH 6.80), 2% SDS, 10% glycerol, 1.5% β-mercaptoethanol, 0.002% bromophenol blue) and size fractioned by 10% of SDS-polyacrylamide gel. After proteins were transferred onto nitrocellulose membrane by iBlot™ (Invitrogen Life Technologies™), non-specific binding were blocked with phosphate buffer saline twenty 20 (PBS-T) containing 5% skim milk for 1 hour. The membrane was then incubated with primary antibody overnight. After incubation with a secondary antibody for 1 hour, protein bands were visualized by an enhanced chemiluminescence (ECL™) detection system (Santa Cruz Biotechnology™, Santa Cruz, Calif.). […]

fibronectin = test: Fibronectin mRNA in human dermal fibroblasts, real-time PCR; assay type: cell-based; conditions: various concentration
[2] = kynurenine isoforms, 50 μg/ml, 48 hours

Nc1ccccc1C(=O)C[C@@H](N)C(=O)O [D-kynurenine]
reduction in conA-induced splenocyte proliferation (splenocytes; after 48 hours): about 2 fold | reduction in conA-induced splenocyte proliferation (splenocytes; after 96 hours): ~5 fold | MMP-1 expression (MMP-1; [2]): increase

O=C(O)c1cc(O)c2cccc(O)c2n1 [xanthurenic acid]
expression of type 1 procollagen (type 1 procollagen): effective at inhibiting | MMP-1 induction (general statement) (MMP-1): induce | MMP-3 induction (general statement) (MMP-3): induce

N#CC(=C(/N)Sc1ccccc1N)/C(C#N)=C(\N)Sc1ccccc1N [U0126]
effect on up-regulation of MMP-1 expression by kynurenine ([1]; to M and 30 μM of U0126): significantly reduced

N[C@@H](Cc1c[nH]c2ccccc12)C(=O)O [tryptophan, reference compound]
MMP-1 expression, presence of tryptophan versus tryptophan-depleted media (MMP-1; 25 μg/ml tryptophan, 48 hrs): no significant difference | MMP-1 expression (MMP-1; various concentration of tryptophan, 48 hours): failed to increase

Nc1ccccc1C(=O)C[C@H](N)C(=O)O [L-kynurenine]
fibronectin expression (mRNA) (fibronectin): capable of down-regulating | reduction in conA-induced splenocyte proliferation (splenocytes; after 48 hours): about 2 fold | reduction in conA-induced splenocyte proliferation (splenocytes; after 96 hours): ~5 fold | activity on MMP-1 expression compared with the other isoforms (MMP-1; 50 μg/ml, 48 hours): more activity compared to other two isoforms | MMP-1 expression (MMP-1; [2]): increase

O=C(O)c1cc(=O)c2ccccc2[nH]1 [kynurenic acid]
effect on splenocyte proliferation compared with other metabolites (splenocytes): less effect | reduction in conA-induced splenocyte proliferation (splenocytes; after 96 hours): ~5 fold | expression of type 1 procollagen (type 1 procollagen): effective at inhibiting | MMP-1 induction (general statement) (MMP-1): induce | MMP1 protein expression 48 hours after treatment removal (MMP-1; 100 μg/ml for 48 hours, then 48 hours after removal): remained higher than controls | MMP1 expression versus untreated cells after treatment removal (MMP-1; 100 μg/ml for 48 hours, then another 24 hours after removal): remained significantly higher | lasting effect on expression of MMP-1 relative to Kyn (MMP-1; 100 μg/ml for 48 hours, then removal): longer lasting effect | MMP1 expression (MMP-1; 100 μg/ml, at 48 hours after treatment): marked increase | MMP-3 induction (general statement) (MMP-3): induce

COc1cccc(-c2cc(=O)c3ccccc3o2)c1N [PD98059]
effect on kynurenine-stimulated MMP-1 expression ([1]; various concentration of PD98059, dose-dependent): effectively prevented

— patent US9737523B2, “Anti-fibrogenic compounds, methods and uses thereof” (priority 2013, dated 2017)
